Data: US11746094B2, “Small molecule photosensitizers for photodynamic therapy” (The University Court of the University of Edinburgh, priority 2019, dated 2023)

Assays:
[1] = Singlet oxygen generation (DPBF absorption, 520 nm laser); format: physicochemical; settings: for Singlet oxygen quantum yield (%): DPBF 40 μM in EtOH, 520 nm laser 0.3 mW
U87 glioblastoma cells = assay: Phototoxicity assay in U87 glioblastoma cells, Annexin V-Pacific Blue staining (fluorescence microscopy, flow cytometry); format: cell-based
Protocol: Compound was administered at 100 μM and illuminated under 520 nm light. Annexin V-Pacific Blue was used as a stain for dead cells. Red fluorescence was used to confirm uptake of PS-SCOTfluor-13 into cells.
Phototoxicity assays of PS-SCOTfluor-13 and 2-NBDG in U87 glioblastoma cells were determined. Compounds administered at 100 μM and illuminated under 520 nm light. Annexin V-Pacific Blue was used as a stain for dead cells. Red fluorescence (for PS-SCOTfluor-13) and green fluorescence (for 2-NBDG) was used to confirm uptake of the compounds into cells.

[2] = test system: U87-mCrimson glioblastoma cells; assay: U87-mCrimson glioblastoma transplant in zebrafish embryos, 520 nm irradiation; format: in vivo; settings: compound injected, then 520 nm light
Protocol: Briefly, U87-mCrimson glioblastoma cells were injected into the yolk sac of zebrafish embryos. Cells were effectively transplanted as shown by fluorescence microscopy images. Zebrafish were then irradiated with 520 nm light alone or injected with PS-SCOTfluor-13 and then irradiated with 520 nm light.

[3] = 100 μM, illuminated under 520 nm light

| Structure (SMILES) | Singlet oxygen quantum yield (%) [1] | Cell death as detected by Annexin V staining (fluorescence microscopy) (U87 glioblastoma cells; [3]) | other results |
| --- | --- | --- | --- |
| O=[N+]([O-])c1ccc(N[C@H]2C(O)O[C@H](CO)[C@@H](O)[C@@H]2O)c2nonc12 (stereo partly drawn) [2-NBDG, reference compound] | <1% | does not kill the cells after illumination | Uptake into U87 glioblastoma cells (fluorescence) (U87 glioblastoma cells; 100 μM): uptaken by U87 glioblastoma cells |
| CCN(CC)c1ccc([N+](=O)[O-])c2n[se]nc12 [PS-SCOTfluor-5, N,N-diethyl-7-nitrobenzo[c][1,2,5]selenadiazol-4-amine] | 3% | – | – |
| CCN(CC)c1cc(I)c([N+](=O)[O-])c2n[se]nc12 [PS-SCOTfluor-6, N,N-diethyl-6-iodo-7-nitrobenzo[c][1,2,5]selenadiazol-4-amine] | 5% | – | – |
| O=[N+]([O-])c1ccc(N[C@@H]2[C@@H](O)[C@H](O)[C@@H](CO)O[C@H]2O)c2nsnc12 [PS-SCOTfluor-13, (2R,3R,4R,5S,6R)-6-(hydroxymethyl)-3-((7-nitrobenzo[c][1,2,5]thiadiazol-4-yl)amino)tetrahydro-2H-pyran-2,4,5-triol] | 24% | kills U87 glioblastoma cells only after irradiation with light | Activity as photosensitizer (summary of Table 1) [1]: high activity as photosensitizer; Cell death as detected by Annexin V staining (flow cytometry) (U87 glioblastoma cells; [3]): kills U87 glioblastoma cells only after irradiation with light but not without light; Effect of excess unlabelled glucose on uptake and cell death (U87 glioblastoma cells; competition with excess unlabelled glucose, Annexin V staining): reduces the uptake of PS-SCOTfluor-13 and subsequently cell death; Glioblastoma transplant (fluorescence of mCrimson reporter) [2]: reduction of the glioblastoma transplant |
| NC(CNc1ccc([N+](=O)[O-])c2n[se]nc12)C(=O)O (stereo not drawn) [PS-SCOTfluor-19, 2-amino-3-((7-nitrobenzo[c][1,2,5]selenadiazol-4-yl)amino)propanoic acid] | 10% | – | – |
